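Where inhibition never reached the appropriate level, the endpoint shown equals the highest concentration tested. Otherwise, values were interpolated linearly from a five-concentration, 48-hour dose response in 96-well plates. GI50 is the concentration that inhibits growth by half.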 Activity calls are given as the source filed them. No stated cut-off is given here; in the data, active = GI50 up to about 1.1 µM and inactive = higher.
How the values were obtained:
Test in all cases: NCI anticancer screen, dose series, 48 h
OVCAR-4 = tested on: OVCAR-4
ACHN = tested on: ACHN
HCT-116 = tested on: HCT-116
LOX IMVI = tested on: LOX IMVI
UO-31 = tested on: UO-31
RPMI-8226 = tested on: RPMI-8226
OVCAR-8 = tested on: OVCAR-8
CCRF-CEM = tested on: CCRF-CEM
HL-60 = tested on: HL-60
SNB-19 = tested on: SNB-19
Malme-3M = tested on: Malme-3M
EKVX = tested on: EKVX
IGROV-1 = tested on: IGROV-1
SK-MEL-28 = tested on: SK-MEL-28
K562 = tested on: K562
SF-539 = tested on: SF-539
MOLT-4 = tested on: MOLT-4
SW-620 = tested on: SW-620
HT-29 = tested on: HT-29
RXF 393 = tested on: RXF 393

Measured: GI50

Nc1n[c-](N)[n+](=O)c(N)c1NCO
inactive: OVCAR-4 > 100 µM | ACHN > 100 µM | HCT-116 > 100 µM | LOX IMVI > 100 µM | UO-31 > 100 µM | RPMI-8226 > 100 µM | OVCAR-8 > 100 µM | CCRF-CEM > 100 µM | HL-60 > 100 µM | SNB-19 > 100 µM | Malme-3M > 100 µM | EKVX > 100 µM | IGROV-1 > 100 µM | SK-MEL-28 > 100 µM | K562 > 100 µM | SF-539 > 100 µM | MOLT-4 > 100 µM | SW-620 > 100 µM | HT-29 > 100 µM | RXF 393 > 100 µM

COc1ccc(/C(C#N)=C/c2ccc(OC)c(OC)c2)cc1
inactive: OVCAR-4 69.8 µM | ACHN > 100 µM | HCT-116 > 100 µM | LOX IMVI > 100 µM | UO-31 > 100 µM | RPMI-8226 > 100 µM | OVCAR-8 > 100 µM | CCRF-CEM > 100 µM | HL-60 > 100 µM | SNB-19 > 100 µM | Malme-3M > 100 µM | EKVX > 100 µM | IGROV-1 > 100 µM | SK-MEL-28 > 100 µM | K562 > 100 µM | SF-539 > 100 µM | MOLT-4 > 100 µM | SW-620 > 100 µM | HT-29 > 100 µM | RXF 393 > 100 µM

c1ccc(C(NC2=NCCO2)c2ccccc2)cc1
inactive: OVCAR-4 > 10 µM | ACHN > 10 µM | HCT-116 > 10 µM | LOX IMVI > 10 µM | UO-31 > 10 µM | RPMI-8226 > 10 µM | OVCAR-8 > 10 µM | CCRF-CEM > 10 µM | HL-60 > 10 µM | SNB-19 > 10 µM | Malme-3M > 10 µM | EKVX > 10 µM | IGROV-1 > 10 µM | SK-MEL-28 > 10 µM | K562 > 10 µM | SF-539 > 10 µM | MOLT-4 > 10 µM | SW-620 > 10 µM | HT-29 > 10 µM | RXF 393 > 10 µM

Cc1cnc(/N=c2\sc(C)cn2-c2ncc(C)s2)s1
inactive: OVCAR-4 > 100 µM | ACHN > 100 µM | HCT-116 > 100 µM | LOX IMVI > 100 µM | UO-31 > 100 µM | RPMI-8226 > 100 µM | OVCAR-8 > 100 µM | CCRF-CEM > 100 µM | HL-60 > 100 µM | SNB-19 > 100 µM | Malme-3M > 100 µM | EKVX > 100 µM | IGROV-1 > 100 µM | SK-MEL-28 > 100 µM | K562 > 100 µM | SF-539 > 100 µM | MOLT-4 > 100 µM | SW-620 > 100 µM | HT-29 > 100 µM | RXF 393 > 100 µM

Cc1ccc(Nc2nc3ccccc3nc2NS(=O)(=O)c2ccc(N)cc2)cc1
inactive: OVCAR-4 19.3 µM | ACHN 38.5 µM | HCT-116 37.3 µM | LOX IMVI 70.3 µM | UO-31 21.5 µM | RPMI-8226 23.6 µM | OVCAR-8 81.8 µM | CCRF-CEM 18.4 µM | HL-60 21.9 µM | SNB-19 31.1 µM | Malme-3M 91.2 µM | EKVX > 100 µM | IGROV-1 56.8 µM | SK-MEL-28 33.4 µM | K562 31.5 µM | SF-539 39.4 µM | MOLT-4 15.6 µM | SW-620 20.4 µM | HT-29 68.4 µM | RXF 393 30.8 µM

— ChEMBL document CHEMBL1201862, “PubChem BioAssay data set” (2004)
